How the values were obtained:
[1] = molecular target: NT-3 growth factor receptor (Homo sapiens) (UniProt Q16288); assay: Inhibition of human TrkC (510 to end residues) using GEEPLYWSFPAKKK as substrate measured after 40 mins in presence of [gamma33P]ATP by scintillation counting method; parameters: scale not given: the % may be the effect or the level left
[2] = molecular target: Ribosomal protein S6 kinase alpha-2 (Homo sapiens) (UniProt Q15349); assay: Inhibition of recombinant full-length human Rsk3 assessed as residual activity at 10 uM using KKKNRTLSVA as substrate measured after 40 mins in presence of [gamma33P]ATP by scintillation counting method
[3] = molecular target: Serine/threonine-protein kinase 25 (Homo sapiens) (UniProt O00506); assay: Inhibition of human STK25 (1 to 308 residues) using RLGRDKYKTLRQIRQ as substrate measured after 40 mins in presence of [gamma33P]ATP by scintillation counting method; parameters: scale not given: the % may be the effect or the level left
[4] = molecular target: Tyrosine-protein kinase receptor TYRO3 (Homo sapiens) (UniProt Q06418); assay: Inhibition of human RSE (451 to end residues) using KVEKIGEGTYGVVYK as substrate measured after 40 mins in presence of [gamma33P]ATP by scintillation counting method; parameters: scale not given: the % may be the effect or the level left
[5] = tested on: Angiopoietin-1 receptor (Homo sapiens), Q02763 [Q939H,Q940H,Y897S]; assay: Inhibition of human Tie2 Q939H/Q940H/Y897S mutant (771 to end residues) using EFPIYDFLPAKKK as substrate measured after 40 mins in presence of [gamma33P]ATP by scintillation counting method; parameters: scale not given: the % may be the effect or the level left
[6] = molecular target: Testis-specific serine/threonine-protein kinase 1 (Homo sapiens) (UniProt Q9BXA7); assay: Inhibition of recombinant full-length human TSSK1 assessed as residual activity at 10 uM using KKKVSRSGLYRSPSMPENLNRPR as substrate measured after 120 mins in presence of [gamma33P]ATP by scintillation counting method
[7] = molecular target: Focal adhesion kinase 1 (Homo sapiens) (UniProt Q05397); assay: Inhibition of recombinant human FAK (411 to 686 residues) assessed as residual activity at 10 uM using EEEEYEEEEEEYYIIEEEEEEYEEEEEEYYEEEEEEKKKK as substrate measured after 40 mins in presence of [gamma33P]ATP by scintillation counting method
[8] = molecular target: Mitogen-activated protein kinase 10 (Homo sapiens) (UniProt P53779); assay: Inhibition of recombinant full-length human JNK3 assessed as residual activity at 10 uM using peptide substrate measured after 40 mins in presence of [gamma33P]ATP by scintillation counting method
HCT-116 = assay: Induction of apoptosis in human HCT116 cells assessed as increase in cleaved caspase9 expression measured after 48 hrs by Western blot analysis; format: functional, cell-based
[9] = tested on: PI3-kinase p110-alpha/p85-alpha (Homo sapiens), P27986+P42336 [E545K]; assay: Inhibition of recombinant full-length human PI3K p110alpha/p85alpha E545K mutant assessed as residual activity at 10 uM using phosphatidylinositol-4, 5-bisphosphate as substrate measured after 40 mins by fluorescence assay; format: protein-complex assay
[10] = molecular target: Tyrosine-protein kinase Fgr (Homo sapiens) (UniProt P09769); assay: Inhibition of recombinant human FGR (2 to end residues) assessed as residual activity at 10 uM using poly(Glu, Tyr) 4:1 as substrate measured after 40 mins in presence of [gamma33P]ATP by scintillation counting method
[11] = molecular target: Ribosomal protein S6 kinase alpha-3 (Homo sapiens) (UniProt P51812); assay: Inhibition of human Rsk2 (2 to end residues) using KKKNRTLSVA as substrate measured after 40 mins in presence of [gamma33P]ATP by scintillation counting method; parameters: scale not given: the % may be the effect or the level left
[12] = molecular target: Mitogen-activated protein kinase kinase kinase 5 (Homo sapiens) (UniProt Q99683); assay: Inhibition of recombinant human ASK1 (649 to 946 residues) assessed as residual activity at 10 uM using myelin basic protein as substrate measured after 40 mins in presence of [gamma33P]ATP by scintillation counting method
[13] = molecular target: Calcium/calmodulin-dependent protein kinase type II subunit gamma (Homo sapiens) (UniProt Q13555); assay: Inhibition of recombinant full-length human CaMK2gamma (1 to 330 residues) assessed as residual activity at 10 uM using calmodulin as substrate measured after 40 mins in presence of [gamma33P]ATP by scintillation counting method
[14] = molecular target: MAPK/MAK/MRK overlapping kinase (Homo sapiens) (UniProt Q9UQ07); assay: Inhibition of recombinant human MOK (1 to 343 residues) assessed as residual activity at 10 uM using RSRSRSRSRSRSRSR as substrate measured after 40 mins in presence of [gamma33P]ATP by scintillation counting method
[15] = Toxicity in nude BALB/c mouse assessed as change in total protein level at 40 to 80 mg/kg, po once daily for 4 weeks measured post-last dose; format: organism-based; details: in vivo, 672 h
[16] = molecular target: Tyrosine-protein kinase Lck (Homo sapiens) (UniProt P06239); assay: Inhibition of recombinant full-length human activated Lck assessed as residual activity at 10 uM using KVEKIGEGTYGVVYK as substrate measured after 40 mins in presence of [gamma33P]ATP by scintillation counting method
[17] = tested on: Proto-oncogene tyrosine-protein kinase receptor Ret (Homo sapiens), P07949 [V804L]; assay: Inhibition of human Ret V804L mutant (658 to end residues) using KKKSPGEYVNIEFG as substrate measured after 40 mins in presence of [gamma33P]ATP by scintillation counting method; parameters: scale not given: the % may be the effect or the level left
SW-620 [18] = assay: Induction of apoptosis in human SW620 cells assessed as late apoptotic cells at 100 nM measured after 48 hrs by Annexin V-FITC/propidium iodide staining-based flow cytometry (reference value: 1.8%); format: functional
[19] = molecular target: Serine/threonine-protein kinase Nek1 (Homo sapiens) (UniProt Q96PY6); assay: Inhibition of recombinant human NEK1 (1 to 505 residues) assessed as residual activity at 10 uM using RLGRDKYKTLRQIRQ as substrate measured after 40 mins in presence of [gamma33P]ATP by scintillation counting method
[20] = molecular target: PI3K p110 beta/p85 alpha (Homo sapiens) (UniProt P27986+P42338); assay: Inhibition of recombinant full-length human PI3K p110beta/p85alpha assessed as residual activity at 10 uM using phosphatidylinositol-4, 5-bisphosphate as substrate measured after 40 mins by fluorescence assay; format: protein-complex assay
[21] = molecular target: Mitogen-activated protein kinase kinase kinase kinase 3 (Homo sapiens) (UniProt Q8IVH8); assay: Inhibition of recombinant human MAP4K3 (1 to 291 residues) assessed as residual activity at 10 uM using RLGRDKYKTLRQIRQ as substrate measured after 40 mins in presence of [gamma33P]ATP by scintillation counting method
SW-620 [22] = assay: Antiproliferative activity against human SW620 cells assessed as reduction in cell viability after 72 hrs by MTT assay; format: functional, cell-based; details: SW-620, 72 h
[23] = molecular target: Protein kinase C beta type (Homo sapiens) (UniProt P05771); assay: Inhibition of recombinant human PKCbeta2 (2 to end residues) assessed as residual activity at 10 uM using histone H1 as substrate measured after 40 mins in presence of [gamma33P]ATP by scintillation counting method

Sequence of Testis-specific serine/threonine-protein kinase 1 (Homo sapiens) (Q9BXA7 whole entry, the tested form may be a part): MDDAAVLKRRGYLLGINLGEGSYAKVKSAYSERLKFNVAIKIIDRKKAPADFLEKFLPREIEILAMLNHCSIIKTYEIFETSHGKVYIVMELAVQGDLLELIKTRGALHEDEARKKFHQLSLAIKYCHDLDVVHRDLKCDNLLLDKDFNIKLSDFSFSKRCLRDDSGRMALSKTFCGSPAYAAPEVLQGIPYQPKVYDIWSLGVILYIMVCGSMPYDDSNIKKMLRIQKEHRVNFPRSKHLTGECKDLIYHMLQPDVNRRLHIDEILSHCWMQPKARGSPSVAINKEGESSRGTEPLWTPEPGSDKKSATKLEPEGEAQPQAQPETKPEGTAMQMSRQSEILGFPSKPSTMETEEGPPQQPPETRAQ
Sequence of Mitogen-activated protein kinase kinase kinase kinase 3 (Homo sapiens) (Q8IVH8 whole entry, the tested form may be a part): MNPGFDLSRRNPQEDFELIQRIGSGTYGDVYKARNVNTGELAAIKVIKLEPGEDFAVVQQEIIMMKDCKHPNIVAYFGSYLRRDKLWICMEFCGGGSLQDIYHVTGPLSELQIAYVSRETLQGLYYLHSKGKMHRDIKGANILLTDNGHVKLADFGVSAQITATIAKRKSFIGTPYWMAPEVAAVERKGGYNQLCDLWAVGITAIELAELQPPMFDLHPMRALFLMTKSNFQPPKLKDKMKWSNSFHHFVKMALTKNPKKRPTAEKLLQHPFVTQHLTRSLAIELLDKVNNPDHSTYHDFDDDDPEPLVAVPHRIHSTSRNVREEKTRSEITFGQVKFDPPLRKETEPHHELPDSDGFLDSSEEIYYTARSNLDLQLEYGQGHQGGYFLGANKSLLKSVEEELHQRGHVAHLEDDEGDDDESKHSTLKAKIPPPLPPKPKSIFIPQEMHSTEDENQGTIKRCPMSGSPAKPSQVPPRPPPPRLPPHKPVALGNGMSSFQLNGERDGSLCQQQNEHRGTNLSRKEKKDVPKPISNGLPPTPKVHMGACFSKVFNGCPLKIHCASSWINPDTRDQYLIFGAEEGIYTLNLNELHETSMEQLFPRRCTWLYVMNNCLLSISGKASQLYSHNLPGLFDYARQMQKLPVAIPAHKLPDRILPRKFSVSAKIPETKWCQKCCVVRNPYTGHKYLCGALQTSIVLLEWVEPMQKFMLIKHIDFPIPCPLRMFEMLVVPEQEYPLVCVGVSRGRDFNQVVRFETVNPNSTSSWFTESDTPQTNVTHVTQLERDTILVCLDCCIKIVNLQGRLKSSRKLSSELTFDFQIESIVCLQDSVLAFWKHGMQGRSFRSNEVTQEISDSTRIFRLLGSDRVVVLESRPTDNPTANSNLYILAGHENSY
Sequence of Serine/threonine-protein kinase 25 (Homo sapiens) (O00506 whole entry, looked up, the tested form may be a part): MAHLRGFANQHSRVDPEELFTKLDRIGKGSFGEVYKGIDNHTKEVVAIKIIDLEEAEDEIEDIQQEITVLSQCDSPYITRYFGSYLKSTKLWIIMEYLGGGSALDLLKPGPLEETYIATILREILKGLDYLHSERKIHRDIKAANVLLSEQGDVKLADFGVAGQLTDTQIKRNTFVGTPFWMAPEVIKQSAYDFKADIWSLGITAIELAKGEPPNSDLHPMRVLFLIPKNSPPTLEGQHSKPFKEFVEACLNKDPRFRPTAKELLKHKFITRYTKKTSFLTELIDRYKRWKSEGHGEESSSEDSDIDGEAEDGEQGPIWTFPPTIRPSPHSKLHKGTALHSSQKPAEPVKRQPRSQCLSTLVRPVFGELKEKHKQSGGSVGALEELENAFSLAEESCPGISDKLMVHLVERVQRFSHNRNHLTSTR
Sequence of Ribosomal protein S6 kinase alpha-3 (Homo sapiens) (P51812 whole entry, the tested form may be a part): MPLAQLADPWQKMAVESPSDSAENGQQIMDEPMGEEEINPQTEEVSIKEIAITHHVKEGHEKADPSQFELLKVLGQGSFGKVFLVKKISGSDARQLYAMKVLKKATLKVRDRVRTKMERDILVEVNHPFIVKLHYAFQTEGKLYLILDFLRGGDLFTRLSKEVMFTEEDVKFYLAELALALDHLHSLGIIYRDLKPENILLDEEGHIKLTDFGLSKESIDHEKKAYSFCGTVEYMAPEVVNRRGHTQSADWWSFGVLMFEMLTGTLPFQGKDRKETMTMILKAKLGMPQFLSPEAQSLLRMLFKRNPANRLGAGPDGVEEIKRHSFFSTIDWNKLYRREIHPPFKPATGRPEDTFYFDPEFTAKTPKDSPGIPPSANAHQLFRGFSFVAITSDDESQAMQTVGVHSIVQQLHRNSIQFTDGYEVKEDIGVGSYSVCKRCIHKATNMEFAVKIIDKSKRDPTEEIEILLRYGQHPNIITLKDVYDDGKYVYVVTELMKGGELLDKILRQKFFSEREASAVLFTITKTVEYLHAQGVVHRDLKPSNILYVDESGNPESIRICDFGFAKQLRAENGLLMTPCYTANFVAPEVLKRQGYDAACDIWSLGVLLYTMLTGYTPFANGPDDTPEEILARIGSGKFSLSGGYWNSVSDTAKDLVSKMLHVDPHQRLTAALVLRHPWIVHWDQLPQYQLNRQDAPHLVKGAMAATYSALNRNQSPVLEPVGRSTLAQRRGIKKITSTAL
Sequence of Proto-oncogene tyrosine-protein kinase receptor Ret (Homo sapiens), P07949 [V804L] (P07949 whole entry V804L): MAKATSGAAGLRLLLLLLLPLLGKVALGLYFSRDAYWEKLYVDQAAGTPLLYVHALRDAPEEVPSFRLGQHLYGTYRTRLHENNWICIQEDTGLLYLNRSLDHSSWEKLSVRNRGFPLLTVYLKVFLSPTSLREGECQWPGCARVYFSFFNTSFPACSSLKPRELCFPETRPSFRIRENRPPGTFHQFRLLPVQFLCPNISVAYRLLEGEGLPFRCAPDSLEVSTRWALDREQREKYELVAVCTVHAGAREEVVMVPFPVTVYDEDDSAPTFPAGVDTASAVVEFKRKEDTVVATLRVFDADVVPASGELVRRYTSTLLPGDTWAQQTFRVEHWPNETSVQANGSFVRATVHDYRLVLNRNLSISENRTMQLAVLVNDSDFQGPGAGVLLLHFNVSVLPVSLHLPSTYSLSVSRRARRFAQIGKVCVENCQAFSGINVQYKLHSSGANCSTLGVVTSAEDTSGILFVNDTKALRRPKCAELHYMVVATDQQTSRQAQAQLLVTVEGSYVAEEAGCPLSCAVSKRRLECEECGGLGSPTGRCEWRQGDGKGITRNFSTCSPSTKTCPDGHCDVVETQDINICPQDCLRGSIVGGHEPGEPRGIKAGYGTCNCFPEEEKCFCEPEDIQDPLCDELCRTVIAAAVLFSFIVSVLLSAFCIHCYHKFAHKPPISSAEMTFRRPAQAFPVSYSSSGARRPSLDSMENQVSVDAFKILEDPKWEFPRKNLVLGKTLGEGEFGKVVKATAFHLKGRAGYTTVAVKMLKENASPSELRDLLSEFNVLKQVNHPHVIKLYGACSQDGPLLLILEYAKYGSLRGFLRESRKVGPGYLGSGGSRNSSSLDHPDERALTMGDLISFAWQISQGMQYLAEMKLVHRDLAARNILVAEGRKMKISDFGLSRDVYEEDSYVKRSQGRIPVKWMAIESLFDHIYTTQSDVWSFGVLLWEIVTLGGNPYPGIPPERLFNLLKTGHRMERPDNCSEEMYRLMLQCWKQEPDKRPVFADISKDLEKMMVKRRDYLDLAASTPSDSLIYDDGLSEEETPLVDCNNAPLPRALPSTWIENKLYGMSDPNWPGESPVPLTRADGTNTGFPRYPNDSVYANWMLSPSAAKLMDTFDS
Sequence of Tyrosine-protein kinase Fgr (Homo sapiens) (P09769 2-529 limits assumed): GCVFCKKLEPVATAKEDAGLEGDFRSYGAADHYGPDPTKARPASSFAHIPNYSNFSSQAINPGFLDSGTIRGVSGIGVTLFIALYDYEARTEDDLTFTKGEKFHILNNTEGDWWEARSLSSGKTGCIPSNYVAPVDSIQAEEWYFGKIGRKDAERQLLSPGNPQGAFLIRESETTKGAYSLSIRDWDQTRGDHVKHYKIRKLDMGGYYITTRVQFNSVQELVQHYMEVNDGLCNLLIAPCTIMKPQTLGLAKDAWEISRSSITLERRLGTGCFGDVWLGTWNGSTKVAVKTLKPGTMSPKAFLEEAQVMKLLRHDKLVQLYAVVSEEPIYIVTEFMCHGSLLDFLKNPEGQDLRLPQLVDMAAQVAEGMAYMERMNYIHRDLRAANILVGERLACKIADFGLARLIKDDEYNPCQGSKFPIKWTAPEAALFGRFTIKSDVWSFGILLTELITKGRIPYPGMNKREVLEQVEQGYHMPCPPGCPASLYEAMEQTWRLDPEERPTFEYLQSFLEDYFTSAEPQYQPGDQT
Sequence of NT-3 growth factor receptor (Homo sapiens) (Q16288 32-839 limits assumed): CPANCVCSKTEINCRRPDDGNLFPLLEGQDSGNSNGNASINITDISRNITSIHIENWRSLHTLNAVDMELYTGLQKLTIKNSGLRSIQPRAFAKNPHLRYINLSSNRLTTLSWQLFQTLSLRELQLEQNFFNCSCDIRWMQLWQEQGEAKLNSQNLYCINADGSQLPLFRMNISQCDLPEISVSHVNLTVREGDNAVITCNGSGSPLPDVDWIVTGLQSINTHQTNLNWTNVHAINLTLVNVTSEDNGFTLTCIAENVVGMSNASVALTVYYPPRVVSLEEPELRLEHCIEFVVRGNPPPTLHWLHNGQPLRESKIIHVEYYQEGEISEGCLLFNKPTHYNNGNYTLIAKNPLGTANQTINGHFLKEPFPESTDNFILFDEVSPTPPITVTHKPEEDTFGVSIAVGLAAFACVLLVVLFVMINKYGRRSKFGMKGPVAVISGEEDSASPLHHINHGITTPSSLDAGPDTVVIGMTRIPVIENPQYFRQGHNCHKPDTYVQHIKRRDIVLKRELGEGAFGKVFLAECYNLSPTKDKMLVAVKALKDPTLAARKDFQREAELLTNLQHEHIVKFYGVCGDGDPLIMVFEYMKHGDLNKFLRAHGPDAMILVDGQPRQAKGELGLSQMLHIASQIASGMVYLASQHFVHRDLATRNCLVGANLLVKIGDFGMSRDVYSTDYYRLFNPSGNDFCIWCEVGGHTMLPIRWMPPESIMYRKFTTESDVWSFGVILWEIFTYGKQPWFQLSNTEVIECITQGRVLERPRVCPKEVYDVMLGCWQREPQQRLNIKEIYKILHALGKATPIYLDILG

Work on `Cc1cc(C)c(CNc2nc(Cl)nc3c2ncn3C2CCCC2)c(=O)[nH]1` yielded an Activity [1] of 110%, an Activity [2] of 114% and an Activity [3] of 106%. The Activity [4] was 126%, the Activity [5] was 114% and the Activity [6] was 110%. For the same compound, the Activity [7] was 104%, the Activity [8] was 142% and the Activity (HCT-116) was “Dose-dependent effect”. For the same compound, the Activity [9] was 93.5%, the Activity [10] was 94.5% and the Activity [11] was 100%. It also gave an Activity [12] of 102%, an Activity [13] of 99.5% and an Activity [14] of 104%. The Activity [15] was “Non-Toxic”, the Activity [16] was 102% and the Activity [17] was 106%. The Activity (SW-620 [18]) was 23.1%, the Activity [19] was 114% and the Activity [20] was 104%. It also gave an Activity [21] of 104%, an IC50 (SW-620 [22]) of 60 nM and an Activity [23] of 106%.

Reference: ChEMBL document CHEMBL4311992, “Discovery of 3-(((9H-purin-6-yl)amino)methyl)-4,6-dimethylpyridin-2(1H)-one derivatives as novel tubulin polymerization inhibitors for treatment of cancer” (Eur J Med Chem, 2019)
